Assays:
B16F10 lung metastases = B16F10 lung metastases after intratumoral treatment of the subcutaneous tumor; format: in vivo, C57BL/6 mice; conditions: 20 μg intratumoral
Excerpt: Activation of the STING pathway promotes antigen presentation and induces a durable T-cell response, as shown in Examples 11 and 12. Thus, the immune memory response induced by EXOSTING™ may be sufficient to prevent tumor metastasis after a local administration in a primary tumor. To test this hypothesis, exosomes purified from HEK293SF cells overexpressing PTGFRN were loaded with the cyclic dinucleotide 3-3 cAIMPdFSH as described in Example 1. C57BL/6 mice were inoculated subcutaneously with 1×10^6 B16F10 melanoma cells on day zero and challenged with an additional tail vein injection of 1×10^5 B16F10 melanoma cells to seed lung metastases (n=8 mice per group). Five, eight, and eleven days post-inoculation the mice were injected intratumorally at the subcutaneous tumor with PBS, 20 μg 3-3 cAIMPdFSH, 120 ng 3-3 cAIMPdFSH, or either 120 ng, 12 ng, or 1.2 ng 3-3 cAIMPdFSH loaded in PTGFRN-overexpressing exosomes (Exo STING Agonist). […] Lungs from all mice were harvested, imaged, and counted for metastases. […] As little as 12 ng of Exo STING Agonist prevented lung metastasis to the same extent as 20 μg STING Agonist (FIGS. 46B and 47).

CT26.CL25 cells = test: CT26.CL25 colorectal tumor growth; format: in vivo, BALB/c mice; conditions: 0.012 μg free, days 13, 16, 19
Method: To test and expand in vivo efficacy to other types of tumors, BALB/c mice were inoculated subcutaneously with 5×10^5 CT26.CL25 cells (ATCC®; CRL-2639™), a murine colorectal cancer cell line engineered to stably express beta-galactosidase, or 5×10^5 CT26.WT cells (ATCC®; CRL-2638™) (n=5-7 mice per group). Thirteen, sixteen, and nineteen days post-inoculation the mice were injected intratumorally into CT26.CL25 tumor with exosomes, 0.012 μg of free 3-3 cAIMPdFSH, or 0.012 μg-3 cAIMPdFSH loaded in PTGFRN-overexpressing exosomes and into CT26.WT tumor with PBS, exosomes, 100 μg of free ML RR-S2 CDA, or 0.2 μg-3 cAIMPdFSH loaded in PTGFRN-overexpressing exosomes.

[1] = test system: B16F10 tumor and stroma area; test: IFNβ in situ hybridization and CD8, F4/80 immunohistochemistry in B16F10 tumor sections; format: in vivo, C57BL/6 mice; conditions: 20 μg free
Method: Four groups of C57BL/6 mice (5 mice per group) were inoculated subcutaneously with 1×10^6 B16F10 tumor cells. Eight days post-inoculation the mice were injected intratumorally with dose of exosomes, 20 μg of free 3-3 cAIMPdFSH, 0.1 μg of free 3-3 cAIMPdFSH, or 0.1 μg of 3-3 cAIMPdFSH loaded in PTGFN-overexpressing exosomes (EXOSTING™). Half of the mice were injected again intratumorally at day 11 after the inoculation. Four- or 24-hours post-injection of each injection, the tumors were collected, cytokine levels were measured by in situ hybridization, and CD8 or F4/80 positive cells were counted by immunohistochemistry. Tumor area and stroma area were identified histologically. IFNβ gene expression levels in the tumor (FIG. 77A) and stroma (FIG. 77B) area were increased in the 20 μg free STING agonist and 0.1 μg EXOSTING™ groups at 4h after single dose. […] F4/80 positive cells were decreased in 20 μg free STING agonist group, but cells were recovered in 0.1 μg EXOSTING™ group (FIG. 78B).

[2] = test system: IFNβ, CXCL9, CXCL10, IFNγ gene expression; serum cytokines; test: Cytokine levels after single intratumoral dose in B16F10 tumor-bearing mice; format: in vivo, C57BL/6 mice; conditions: 20 μg single intratumoral dose, four hours post-injection
Method: Four groups of C57BL/6 mice (3-4 mice per group) were inoculated subcutaneously with 5×10^5 B16F10 tumor cells. Eight days post-inoculation the mice were injected with a single intratumoral dose of PBS, 20 μg of free ML RR-S2 CDA, 0.2 μg of free ML RR-S2 CDA, or 0.2 μg of ML RR-S2 CDA loaded in PTGFN-overexpressing exosomes (exo ML RR-S2 CDA). Four hours post-injection the tumors, draining lymph nodes, spleens, and serum were collected and cytokine levels were measured.
To confirm that the effects observed in FIGS. 20-23 were applicable to other STING agonists, B16F10 subcutaneous tumor-bearing mice were injected with 20 μg of free 3-3 cAIMPdFSH, 0.2 μg of free 3-3 cAIMPdFSH, or 0.2 μg of 3-3 cAIMPdFSH loaded in PTGFRN-overexpressing exosomes (exo 3-3 cAIMPdFSH).

E.G7-OVA cells = test: E.G7-OVA T-cell lymphoma tumor growth, intratumoral injection; format: in vivo, C57BL/6 mice
Method: To test this hypothesis, C57BL/6 mice were inoculated subcutaneously with 1×10^6 E.G7-OVA cells (ATCC®; CRL-2113™), a murine T-cell lymphoma cell line engineered to stably express OVA and allow for modeling antigen-specific T-cell responses in mice (n=5 mice per group). Ten, 13, and 16 days post-inoculation the mice were injected intratumorally with PBS, 20 μg ML RR-S2, 0.2 μg ML RR-S2, or 0.2 μg ML RR-S2 loaded in PTGFRN-overexpressing exosomes). […] Splenic T-cells from all groups were isolated and measured for OVA-specific reactivity as described in Example 11.

[3] = test system: CD8+ T-cells, macrophages, and dendritic cells; test: Live CD45+ cell populations in B16F10 tumors 24 hours post-injection; format: in vivo, mice; conditions: 20 μg intratumoral
Method: Constitutive activation of the STING pathway results in robust pro-inflammatory signaling and may be toxic to cells and tissues (N Engl J Med. 2014 Aug. 7; 371(6): 507-518). Non-selective delivery of STING agonists in a tumor microenvironment may result in a robust IFNβ response, but if response is too strong or originates in undesired cell populations, effector cells such as CD8^+ T-cells may be killed or otherwise attenuated. B16F10 melanoma tumors were injected with PTGFRN-overexpressing exosomes labeled with Alexa Fluor™ 488 and removed one hour post-injection. Tumor-infiltrating lymphocytes were purified and measured for fluorescence at 488 nm to track exosome uptake. Only ˜20% of T-cells engulfed exosomes, while ˜90% and ˜70% of macrophages and dendritic cells, respectively, engulfed exosomes (FIG. 51A). […] 24 hours post-injection, the tumors were isolated, homogenized, and live CD45^+ cell populations were counted. […] Non-selective delivery of high doses of STING agonists therefore may attenuate desirable immune stimulatory responses.

Compound	lung lesions by histology (B16F10 lung metastases)	lung metastases compared to PBS (B16F10 lung metastases)	tumor growth compared to control (CT26.CL25 cells)	CD8 positive T cells [1]	F4/80 positive cells [1]	level of IFNβ in tumor and stroma area ([1]; 4h after second doses)	IFNβ gene expression in tumor and stroma area ([1]; 4h after single dose)	IFNβ gene expression levels in the tumor [2]	tumor growth compared to PBS (E.G7-OVA cells; 0.2 μg intratumoral days 10, 13, 16)	tumor growth compared to PBS (E.G7-OVA cells; 20 μg intratumoral days 10, 13, 16)	CD8+ T-cells, macrophages, and dendritic cells in tumor [3]
Nc1ncnc2c1ncn2[C@@H]1O[C@@H]2COP(=O)(S)O[C@H]3[C@@H](F)[C@H](n4cnc5c(=O)[nH]cnc54)O[C@@H]3COP(O)(=S)O[C@H]2[C@H]1F (some centres unmarked) [3-3 cAIMPdFSH, 3′3′-cAIMPdFSH]	significant amount of lung lesions inside of lung	dramatically reduced	moderately attenuated tumor growth	not increased	decreased	significantly decreased	increased				
Nc1ncnc2c1ncn2[C@@H]1O[C@@H]2COP(O)(=S)O[C@@H]3C(O)[C@@H](COP(O)(=S)O[C@H]2[C@H]1O)O[C@H]3n1cnc2c(N)ncnc21 (some centres unmarked) [ML RR-S2 CDA]								higher than the 0.2 μg free STING agonist and PBS groups	moderately attenuated tumor growth	dramatically prevented tumor growth	dramatically reduced compared to the other groups

From patent publication US20210322327A1, “EXTRACELLULAR VESICLES COMPRISING STING-AGONIST” (Codiak BioSciences, Inc., priority 2018, published 2021)
